ChEMBL document CHEMBL1201862, “PubChem BioAssay data set” (2004)
The source made the active and inactive calls.

Columns and labels:
[1] = molecular target: T1, Sentrin-specific protease 7 (Homo sapiens, UniProt Q9BQF6); format: functional;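 also: Luminescence-based dose-response confirmation of ultra-high-throughput screening hits, measuring inhibition of SENP7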
T1 sequence (Q9BQF6 whole entry): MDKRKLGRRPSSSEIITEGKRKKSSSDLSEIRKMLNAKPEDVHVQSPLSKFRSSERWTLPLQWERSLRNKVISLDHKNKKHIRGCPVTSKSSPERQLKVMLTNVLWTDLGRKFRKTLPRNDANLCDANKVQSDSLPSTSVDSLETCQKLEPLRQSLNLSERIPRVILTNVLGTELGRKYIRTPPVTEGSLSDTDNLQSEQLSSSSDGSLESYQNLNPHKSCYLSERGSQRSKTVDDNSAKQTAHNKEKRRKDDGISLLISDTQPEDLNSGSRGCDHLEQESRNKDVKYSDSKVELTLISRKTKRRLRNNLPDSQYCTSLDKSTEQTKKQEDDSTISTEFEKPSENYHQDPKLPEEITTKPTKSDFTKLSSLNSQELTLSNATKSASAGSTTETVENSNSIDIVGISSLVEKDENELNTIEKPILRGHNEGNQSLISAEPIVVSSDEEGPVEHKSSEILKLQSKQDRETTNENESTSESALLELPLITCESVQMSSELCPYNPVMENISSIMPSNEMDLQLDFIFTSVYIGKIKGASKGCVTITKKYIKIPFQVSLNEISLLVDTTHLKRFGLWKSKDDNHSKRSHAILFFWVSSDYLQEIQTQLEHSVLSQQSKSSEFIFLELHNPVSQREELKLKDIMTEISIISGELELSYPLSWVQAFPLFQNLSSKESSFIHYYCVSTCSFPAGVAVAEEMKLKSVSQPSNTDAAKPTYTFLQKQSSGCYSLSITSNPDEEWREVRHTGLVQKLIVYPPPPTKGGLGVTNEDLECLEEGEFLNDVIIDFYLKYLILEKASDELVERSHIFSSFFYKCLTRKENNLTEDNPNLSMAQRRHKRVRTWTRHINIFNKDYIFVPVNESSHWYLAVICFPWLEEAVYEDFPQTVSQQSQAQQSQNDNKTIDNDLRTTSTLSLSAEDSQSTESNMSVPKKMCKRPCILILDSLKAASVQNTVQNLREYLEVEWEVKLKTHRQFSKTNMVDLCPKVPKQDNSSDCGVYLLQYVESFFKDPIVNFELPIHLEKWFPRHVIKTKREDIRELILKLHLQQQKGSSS

Caspase-3 = molecular target: T2, Caspase-3 (Homo sapiens, UniProt P42574); format: functional;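 also: Dose-response selectivity test against caspase-3 for candidate inhibitors of sentrin-specific proteases (SENPs)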
T2 sequence (P42574 whole entry): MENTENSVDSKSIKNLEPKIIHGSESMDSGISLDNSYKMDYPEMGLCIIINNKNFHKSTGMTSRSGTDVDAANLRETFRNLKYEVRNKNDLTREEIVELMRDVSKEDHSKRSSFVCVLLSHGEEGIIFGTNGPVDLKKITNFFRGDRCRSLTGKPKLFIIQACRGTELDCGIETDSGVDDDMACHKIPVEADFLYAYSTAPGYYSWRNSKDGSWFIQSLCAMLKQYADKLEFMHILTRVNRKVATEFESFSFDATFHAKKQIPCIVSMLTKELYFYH

[2] = molecular target: T3, Sentrin-specific protease 8 (Homo sapiens, UniProt Q96LD8); format: functional;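 also: luminescence read-out of SENP8 inhibition, dose-response confirmation following an ultra-high-throughput screen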
T3 sequence (Q96LD8 whole entry): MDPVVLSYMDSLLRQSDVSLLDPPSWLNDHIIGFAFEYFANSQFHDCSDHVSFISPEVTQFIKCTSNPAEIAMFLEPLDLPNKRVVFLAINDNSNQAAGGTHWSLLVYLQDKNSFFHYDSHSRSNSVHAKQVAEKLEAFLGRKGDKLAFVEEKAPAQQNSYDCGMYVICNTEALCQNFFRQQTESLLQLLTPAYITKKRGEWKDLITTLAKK

[3] = molecular target: T4, Sentrin-specific protease 6 (Homo sapiens, UniProt Q9GZR1); format: functional;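 also: Luminescence-based dose-response confirmatory assay of SENP6 inhibition, following up an ultra-high-throughput screen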
T4 sequence (Q9GZR1 whole entry): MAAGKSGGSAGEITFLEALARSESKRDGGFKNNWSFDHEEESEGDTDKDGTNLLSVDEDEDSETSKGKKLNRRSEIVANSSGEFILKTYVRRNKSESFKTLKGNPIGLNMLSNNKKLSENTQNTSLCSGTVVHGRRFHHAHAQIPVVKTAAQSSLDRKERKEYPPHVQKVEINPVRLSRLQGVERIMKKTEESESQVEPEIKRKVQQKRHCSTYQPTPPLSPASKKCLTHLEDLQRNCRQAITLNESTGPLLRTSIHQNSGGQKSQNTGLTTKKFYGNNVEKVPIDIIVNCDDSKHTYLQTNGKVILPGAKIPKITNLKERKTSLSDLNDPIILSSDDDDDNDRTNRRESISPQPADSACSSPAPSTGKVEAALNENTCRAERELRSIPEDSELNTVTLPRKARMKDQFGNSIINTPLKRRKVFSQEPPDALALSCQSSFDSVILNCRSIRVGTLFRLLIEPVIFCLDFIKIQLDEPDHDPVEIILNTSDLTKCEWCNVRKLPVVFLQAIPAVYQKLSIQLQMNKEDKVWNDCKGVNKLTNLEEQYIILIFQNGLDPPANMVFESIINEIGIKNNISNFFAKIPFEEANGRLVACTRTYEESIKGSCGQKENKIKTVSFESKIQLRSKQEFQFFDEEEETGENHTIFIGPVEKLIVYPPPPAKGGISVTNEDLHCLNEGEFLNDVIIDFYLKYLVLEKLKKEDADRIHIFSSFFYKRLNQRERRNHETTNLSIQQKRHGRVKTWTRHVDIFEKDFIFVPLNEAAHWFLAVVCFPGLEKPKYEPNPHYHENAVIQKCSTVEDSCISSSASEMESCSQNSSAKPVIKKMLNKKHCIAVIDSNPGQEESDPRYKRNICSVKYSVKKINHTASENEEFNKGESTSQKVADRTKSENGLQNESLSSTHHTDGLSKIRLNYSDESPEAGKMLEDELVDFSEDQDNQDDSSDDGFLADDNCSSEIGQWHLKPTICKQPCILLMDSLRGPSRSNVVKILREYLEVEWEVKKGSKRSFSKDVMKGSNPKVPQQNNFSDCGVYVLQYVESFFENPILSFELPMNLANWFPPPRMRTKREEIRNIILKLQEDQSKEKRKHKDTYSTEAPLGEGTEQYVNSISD

[4] = Vero E6 cell cytotoxicity, dose response, cytotoxicity control for non-replicating M. tuberculosis project, secondary assay (AID 492998); format: functional, VeroE6; conditions: Vero C1008
[5] = THP-1 cell cytotoxicity, dose response, cytotoxicity control for non-replicating M. tuberculosis project (AID 489025); format: functional
cells = format: functional
Cytochrome P450 3A4 = Cytochrome P450 3A4 (Homo sapiens, UniProt P08684);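 also: CYP3A4 tested as one member of a cytochrome P450 panel screen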
Sequence of Cytochrome P450 3A4 (P08684 whole entry): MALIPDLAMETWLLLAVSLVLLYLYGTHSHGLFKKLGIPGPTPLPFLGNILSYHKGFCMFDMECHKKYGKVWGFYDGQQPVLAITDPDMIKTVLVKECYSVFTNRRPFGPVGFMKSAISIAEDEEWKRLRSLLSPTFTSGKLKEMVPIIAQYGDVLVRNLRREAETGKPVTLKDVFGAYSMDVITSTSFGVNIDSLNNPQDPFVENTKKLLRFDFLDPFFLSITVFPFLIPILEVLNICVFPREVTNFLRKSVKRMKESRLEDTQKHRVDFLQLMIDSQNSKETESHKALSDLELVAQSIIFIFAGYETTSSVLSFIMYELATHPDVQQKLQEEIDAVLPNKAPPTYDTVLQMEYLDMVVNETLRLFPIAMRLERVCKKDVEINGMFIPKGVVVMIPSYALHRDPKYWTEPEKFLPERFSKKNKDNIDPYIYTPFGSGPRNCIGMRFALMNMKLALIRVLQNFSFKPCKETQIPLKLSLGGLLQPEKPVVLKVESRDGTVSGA

[6] = microbe, parasite or virus in culture; format: functional; conditions: Mycobacterium tuberculosis
[7] = inhibitors of intracellular T. cruzi replication, confirmation, NIH3T3 host cells, beta-gal luminescence (AID 2044); format: functional, cell-based;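 also: intracellular parasites grown in NIH/3T3 mouse fibroblasts as host cells; luminescent beta-galactosidase reporter signal from transgenic T. cruzi replicating inside host cells; inhibitors lower the luminescence signal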
[8] = cytotoxicity toward NIH3T3 fibroblasts, dose response, counter-screen, cell-based, ATP luminescence, mouse fibroblasts (AID 2010); format: functional;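 also: cells exposed to compound for about 90 hours before reading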
Cytochrome P450 2C9 = Cytochrome P450 2C9 (Homo sapiens, UniProt P11712)
Sequence of Cytochrome P450 2C9 (P11712 whole entry): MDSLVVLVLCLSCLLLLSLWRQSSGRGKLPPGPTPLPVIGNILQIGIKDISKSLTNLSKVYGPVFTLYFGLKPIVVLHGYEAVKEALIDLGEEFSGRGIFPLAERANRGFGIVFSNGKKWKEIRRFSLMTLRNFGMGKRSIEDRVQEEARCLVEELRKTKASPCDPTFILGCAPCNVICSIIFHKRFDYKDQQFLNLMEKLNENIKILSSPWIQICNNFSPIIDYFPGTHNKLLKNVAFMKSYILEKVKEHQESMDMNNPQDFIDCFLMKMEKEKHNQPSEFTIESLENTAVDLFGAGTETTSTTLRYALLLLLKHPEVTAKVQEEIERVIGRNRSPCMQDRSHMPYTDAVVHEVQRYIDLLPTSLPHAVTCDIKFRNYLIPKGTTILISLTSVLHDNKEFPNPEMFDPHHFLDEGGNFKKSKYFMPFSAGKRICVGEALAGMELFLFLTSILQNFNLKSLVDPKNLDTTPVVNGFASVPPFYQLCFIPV

Cytochrome P450 2C19 = Cytochrome P450 2C19 (Homo sapiens, UniProt P33261); experiment: Cytochrome panel assay with activity outcomes. Panel member name: p450-cyp2c19 Compounds with AC50 equal or less than 10 uM are considered active; format: functional; conditions: read-out: AC50
Sequence of Cytochrome P450 2C19 (P33261 whole entry): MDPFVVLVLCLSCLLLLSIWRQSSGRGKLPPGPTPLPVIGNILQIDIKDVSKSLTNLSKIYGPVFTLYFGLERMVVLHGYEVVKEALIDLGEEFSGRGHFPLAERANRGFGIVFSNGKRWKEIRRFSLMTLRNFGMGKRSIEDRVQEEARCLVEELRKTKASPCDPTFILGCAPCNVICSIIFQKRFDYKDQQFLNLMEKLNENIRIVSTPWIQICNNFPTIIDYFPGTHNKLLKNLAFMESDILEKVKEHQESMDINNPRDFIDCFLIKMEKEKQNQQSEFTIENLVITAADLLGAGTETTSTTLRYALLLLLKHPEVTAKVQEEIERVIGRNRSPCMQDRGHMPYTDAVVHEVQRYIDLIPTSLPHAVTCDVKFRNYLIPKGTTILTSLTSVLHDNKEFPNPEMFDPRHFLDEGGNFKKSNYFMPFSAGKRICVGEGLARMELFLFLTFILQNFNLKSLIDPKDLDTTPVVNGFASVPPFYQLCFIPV

[9] = molecular target: T5, Heat shock factor protein 1 (Mus musculus, UniProt P38532); experiment: inhibition of MG132-induced HSE-luciferase signal, confirmation, cell-based, NIH3T3, luminescence, dose retest (AID 2382); format: functional;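 also: NIH3T3 fibroblasts with HSF1-driven luciferase reporter stressed by proteasome inhibitor MG132; luminescence from HSF1-driven luciferase expression after 8 hours of MG132 stress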
T5 sequence (P38532 whole entry): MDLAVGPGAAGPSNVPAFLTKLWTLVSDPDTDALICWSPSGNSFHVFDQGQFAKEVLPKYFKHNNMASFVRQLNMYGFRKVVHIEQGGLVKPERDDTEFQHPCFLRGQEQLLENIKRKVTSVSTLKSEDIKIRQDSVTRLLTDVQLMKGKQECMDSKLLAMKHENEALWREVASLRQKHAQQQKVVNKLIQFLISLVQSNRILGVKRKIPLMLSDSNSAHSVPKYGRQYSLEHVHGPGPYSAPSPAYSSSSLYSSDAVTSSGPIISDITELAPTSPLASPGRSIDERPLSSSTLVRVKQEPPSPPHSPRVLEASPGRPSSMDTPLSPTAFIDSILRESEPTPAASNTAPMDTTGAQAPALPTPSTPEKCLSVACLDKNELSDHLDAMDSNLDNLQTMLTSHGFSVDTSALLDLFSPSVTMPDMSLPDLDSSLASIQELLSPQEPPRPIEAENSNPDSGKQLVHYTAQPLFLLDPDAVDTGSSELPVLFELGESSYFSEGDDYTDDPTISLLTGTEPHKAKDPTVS

[10] = molecular target: T5, Heat shock factor protein 1; experiment: HSF1 potentiators in luciferase reporter cells, confirmation, cell-based, NIH3T3, luminescence, dose retest (AID 435004); format: functional;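 also: stress induced by proteasome inhibitor MG132 added 30 min after compound; luciferase reporter driven by HSF1 response element in NIH3T3 cells; actives raise luminescence as potentiators of the MG132 stress response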
Cytochrome P450 1A2 = molecular target: T6, Cytochrome P450 1A2 (Homo sapiens, UniProt P05177);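 also: PubChem cytochrome P450 panel assay, CYP1A2 panel member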
T6 sequence (P05177 whole entry): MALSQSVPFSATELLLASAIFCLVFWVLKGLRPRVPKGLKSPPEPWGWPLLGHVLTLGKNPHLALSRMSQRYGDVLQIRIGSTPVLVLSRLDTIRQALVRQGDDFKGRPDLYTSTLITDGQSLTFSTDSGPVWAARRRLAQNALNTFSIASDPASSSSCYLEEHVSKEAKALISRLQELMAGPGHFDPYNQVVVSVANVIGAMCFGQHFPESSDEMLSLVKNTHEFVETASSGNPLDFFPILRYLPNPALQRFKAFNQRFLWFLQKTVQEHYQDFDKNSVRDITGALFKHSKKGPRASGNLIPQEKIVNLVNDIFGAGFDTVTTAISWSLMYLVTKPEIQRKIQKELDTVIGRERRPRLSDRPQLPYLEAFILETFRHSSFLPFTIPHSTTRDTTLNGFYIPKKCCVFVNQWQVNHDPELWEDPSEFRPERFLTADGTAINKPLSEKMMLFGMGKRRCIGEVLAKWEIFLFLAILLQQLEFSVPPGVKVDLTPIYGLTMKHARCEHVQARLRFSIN

[11] = Shn3 3'UTR reporter inhibitors, dose response, cell-based, Clone20 osteoblasts, firefly luciferase, cherry-picked (AID 624132); format: functional;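 also: firefly luciferase luminescence from reporter carrying the Shn3 3'UTR in osteoblasts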
[12] = HepG2 cell cytotoxicity, dose response, cytotoxicity control for Shn3 inhibitor project, CellTiter-Glo, cherry-picked (AID 624134); format: functional, cell-based
INS1 = experiment: beta cell apoptosis inhibitors, cytokine rescue, dose response, luminescence, retest (AID 449756); format: functional, cell-based; conditions: Rattus norvegicus;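 also: cell death triggered by IL-1 beta plus TNF-alpha plus IFN-gamma mixture; protective hits raise ATP signal compared with cytokine alone wells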
[13] = control 3'UTR Renilla luciferase suppression, dose response, counter-screen for Shn3 inhibitor project, cell-based, Clone20-Shn3RL, cherry-picked (AID 624133); format: functional

Row | Structure (SMILES) | IC50 [1] | IC50 (Caspase-3) | IC50 [2] | IC50 [3] | AC50 (Cytochrome P450 3A4) | further results
1 | O=C(Cn1cc(SCc2ccc(Cl)cc2)c2ccccc21)N1CCOCC1 | 6.14 µM (active) | 27.1 µM (active) | > 100 µM (inactive) | 10.3 µM (active) | – | –
2 | O=C(COc1ccc(Cc2ccccc2)cc1)c1ccc(F)cc1 | 15.6 µM (active) | 39.9 µM (active) | > 100 µM (inactive) | 69.3 µM (active) | – | –
3 | Cc1cc(Br)ccc1OCC(=O)NNC(=O)c1cnccn1 | – | – | – | – | – | CC50 [4]: 17.8 µM (active); CC50 [5]: > 40 µM (active); IC50 (cells): 8.2 µM (active)
4 | Cc1c(Cl)cccc1NC(=O)CN1CCC(C(O)(c2ccccc2)c2ccccc2)CC1 | – | – | – | – | inconclusive | CC50 [6]: > 40 µM (active); EC50 [7]: 2.33 µM (active); EC50 [8]: > 30 µM (not active)
5 | O=C(Oc1ccccc1)N1CCC2(CC1)CCN(c1ccccn1)CC2 | – | – | – | – | inconclusive | AC50 (Cytochrome P450 2C9): 31.6 µM (inconclusive); AC50 (Cytochrome P450 2C19): 20 µM (inconclusive)
6 | Cc1nc2ncnn2c(C)c1CCC(=O)N1CCN(C(=O)c2ccco2)CC1 | – | – | – | – | inconclusive | –
7 | O=C1c2ccccc2-c2nnc(-c3ccc(F)cc3)cc21 | 1.9 µM (active) | 2.59 µM (active) | 3.58 µM (active) | 2.5 µM (active) | – | –
8 | c1ccn(-c2ccc(N3CCOCC3)cc2)c1 | – | – | – | – | inconclusive | EC50 [9]: > 195 µM (not active)
9 | CCOc1ccc2nc(COC(=O)c3cccc([N+](=O)[O-])c3)c(C(C)=O)[n+]([O-])c2c1 | – | – | – | – | – | EC50 [10]: > 260 µM (inactive)
10 | O=C(Nc1ccccc1)N1CCC2(CC1)CCN(C(=O)c1ccco1)CC2 | – | – | – | – | inconclusive | AC50 (Cytochrome P450 2C19): 39.8 µM (inconclusive); AC50 (Cytochrome P450 1A2): 10 µM (inconclusive)
11 | O=C(NC1CCCCC1)c1cnn2c(C(F)(F)F)cc(-c3ccco3)nc12 | – | – | – | – | – | EC50 [10]: > 260 µM (inactive)
12 | Cc1cccc(OCc2cc(-c3ccccc3)no2)c1C | 5.47 µM (active) | 26.6 µM (active) | 42.8 µM (active) | 20.1 µM (active) | – | –
13 | COc1ccc(Nc2nc(N3CCCCC3)c3ccccc3n2)cc1 | – | – | – | – | inconclusive | AC50 (Cytochrome P450 2C9): 17.8 µM (inconclusive); AC50 [11]: 2.11 µM (active); AC50 [12]: 36.5 µM (active); AC50 (INS1): 4.63 µM (active); AC50 [13]: 6.45 µM (active)
